Data taken from ChEMBL document CHEMBL3580572, “Synthesis of mixed opioid affinity cyclic endomorphin-2 analogues with fluorinated phenylalanines” (ACS Med Chem Lett, 2015).
Active and inactive are the calls of the source. No cut-off for these calls is given here. Where a SMILES comes first, the peptide text is derived from it. Bridges are numbered along the chain shown (N, C = ends). [ ]: non-standard residue; d: D form. Phe(4-CF3) = N[C@@H](Cc1ccc(C(F)(F)F)cc1)C(=O)O; Dmt = Cc1cc(O)cc(C)c1C[C@H](N)C(=O)O

Experiments:
Mu-type opioid receptor [1] = target: Mu-type opioid receptor (Rattus norvegicus, UniProt P33535); experiment: Displacement of [3H]DAMGO from mu opioid receptor in Wistar rat brain membranes after 120 mins by scintillation counting analysis; assay type: cell membranes, Membrane
[2] = target: Delta-type opioid receptor (Rattus norvegicus, UniProt P33533); experiment: Displacement of [3H][Ile5,6]deltorphin-2 from delta opioid receptor in Wistar rat brain membranes after 120 mins by scintillation counting analysis; assay type: cell membranes, Membrane
[3] = target: Kappa-type opioid receptor (Cavia porcellus, UniProt P41144); experiment: Displacement of [3H]nor-BNI from kappa opioid receptor in guinea pig brain membranes after 120 mins by scintillation counting analysis; assay type: cell membranes, Membrane
[4] = Metabolic stability in rat brain homogenates assessed as enzymatic degradation by measuring compound remaining at 0.5 mM after 90 mins by RP-HPLC analysis; assay type: ADME, tissue-based; settings: brain homogenate, read-out: Stability
Mu-type opioid receptor [5] = target: T1, Mu-type opioid receptor (Homo sapiens, UniProt P35372); experiment: Agonist activity at human recombinant mu opioid receptor expressed in CHO cells co-expressing C-terminally modified GGalphaqi5 assessed as stimulation of calcium release by Fluo-4 AM dye-based fluorescence assay; assay type: functional, cell-based
[6] = target: T2, Delta-type opioid receptor (Homo sapiens, UniProt P41143); experiment: Agonist activity at human recombinant delta opioid receptor expressed in CHO cells co-expressing Galphaq66Di5 assessed as stimulation of calcium release up to 1 uM by Fluo-4 AM dye-based fluorescence assay; assay type: functional, cell-based
[7] = target: T3, Kappa-type opioid receptor (Homo sapiens, UniProt P41145); experiment: Agonist activity at human recombinant kappa opioid receptor expressed in CHO cells co-expressing C-terminally modified Galphaqi5 assessed as stimulation of calcium release by Fluo-4 AM dye-based fluorescence assay; assay type: functional, cell-based
[8] = target: T3, Kappa-type opioid receptor; experiment: Intrinsic activity at human recombinant kappa opioid receptor expressed in CHO cells co-expressing C-terminally modified Galphaqi5 assessed as efficacy ratio by measuring stimulation of calcium release by Fluo-4 AM dye-based fluorescence assay relative to dynorphin-A; assay type: functional, cell-based
Mu-type opioid receptor [9] = target: T1, Mu-type opioid receptor; experiment: Agonist activity at human recombinant mu opioid receptor expressed in CHO cells co-expressing C-terminally modified Galphaqi5 assessed as stimulation of calcium release up to 1 uM by Fluo-4 AM dye-based fluorescence assay; assay type: functional, cell-based
[10] = target: T2, Delta-type opioid receptor; experiment: Agonist activity at human recombinant delta opioid receptor expressed in CHO cells co-expressing Galphaq66Di5 assessed as stimulation of calcium release by Fluo-4 AM dye-based fluorescence assay; assay type: functional, cell-based
[11] = target: T2, Delta-type opioid receptor; experiment: Intrinsic activity at human recombinant delta opioid receptor expressed in CHO cells co-expressing Galphaq66Di5 assessed as efficacy ratio by measuring stimulation of calcium release by Fluo-4 AM dye-based fluorescence assay relative to DPDPE; assay type: functional, cell-based
Mus musculus [12] = experiment: Antinociceptive activity in icv dosed CD1 mouse assessed as inhibition of jumping behavior after 10 mins by hot plate assay; assay type: functional, organism-based
Mus musculus [13] = experiment: Antinociceptive activity in CD1 mouse assessed as inhibition of jumping behavior at 0.3 to 10 mg/kg, ip after 15 mins by hot plate assay; assay type: functional, organism-based
Mus musculus [14] = experiment: Antinociceptive activity in CD1 mouse assessed as inhibition of jumping behavior at 100 ng, icv after 10 mins by hot plate assay in presence of mu opioid receptor antagonist beta-FNA; assay type: functional, organism-based
Mus musculus [15] = experiment: Antinociceptive activity in CD1 mouse assessed as inhibition of jumping behavior at 100 ng, icv after 10 mins by hot plate assay in presence of kappa opioid receptor antagonist nor-BNI; assay type: functional, organism-based
Mus musculus [16] = experiment: Antinociceptive activity in CD1 mouse assessed as maximal possible effect by measuring inhibition of jumping behavior at 10 mg/kg, ip after 15 mins by hot plate assay relative to control; assay type: functional

T2 sequence (P41143 whole entry): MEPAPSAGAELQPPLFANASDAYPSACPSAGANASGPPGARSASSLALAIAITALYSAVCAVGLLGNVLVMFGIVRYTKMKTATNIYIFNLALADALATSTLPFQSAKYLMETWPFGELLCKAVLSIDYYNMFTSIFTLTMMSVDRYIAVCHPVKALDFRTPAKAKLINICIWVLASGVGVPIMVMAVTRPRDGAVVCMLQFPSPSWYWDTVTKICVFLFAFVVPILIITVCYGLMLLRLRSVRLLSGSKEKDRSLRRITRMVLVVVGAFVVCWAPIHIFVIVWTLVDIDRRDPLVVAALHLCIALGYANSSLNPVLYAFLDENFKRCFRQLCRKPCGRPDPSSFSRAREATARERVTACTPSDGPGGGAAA
Delta-type opioid receptor (Rattus norvegicus, UniProt P33533), sequence (P33533 whole entry): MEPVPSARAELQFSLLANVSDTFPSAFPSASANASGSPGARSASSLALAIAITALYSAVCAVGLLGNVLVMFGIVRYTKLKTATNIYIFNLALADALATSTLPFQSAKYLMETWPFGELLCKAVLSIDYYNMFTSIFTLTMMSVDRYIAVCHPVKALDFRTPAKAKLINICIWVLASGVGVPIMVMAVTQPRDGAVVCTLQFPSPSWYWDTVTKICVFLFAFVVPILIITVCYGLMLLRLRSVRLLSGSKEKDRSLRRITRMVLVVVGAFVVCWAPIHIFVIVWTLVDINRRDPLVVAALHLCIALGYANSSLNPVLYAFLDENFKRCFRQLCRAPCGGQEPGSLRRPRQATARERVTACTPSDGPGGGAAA
Kappa-type opioid receptor (Cavia porcellus, UniProt P41144), sequence (P41144 whole entry): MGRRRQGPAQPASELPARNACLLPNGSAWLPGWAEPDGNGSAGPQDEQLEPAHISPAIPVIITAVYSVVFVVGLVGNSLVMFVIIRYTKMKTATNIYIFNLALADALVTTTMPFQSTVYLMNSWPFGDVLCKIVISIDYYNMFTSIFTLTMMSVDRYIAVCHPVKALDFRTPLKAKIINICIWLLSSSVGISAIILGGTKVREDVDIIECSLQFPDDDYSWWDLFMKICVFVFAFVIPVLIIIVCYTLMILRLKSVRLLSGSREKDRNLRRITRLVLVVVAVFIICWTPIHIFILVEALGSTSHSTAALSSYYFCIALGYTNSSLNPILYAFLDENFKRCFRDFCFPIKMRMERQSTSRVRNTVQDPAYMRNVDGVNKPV
T3 sequence (P41145 whole entry): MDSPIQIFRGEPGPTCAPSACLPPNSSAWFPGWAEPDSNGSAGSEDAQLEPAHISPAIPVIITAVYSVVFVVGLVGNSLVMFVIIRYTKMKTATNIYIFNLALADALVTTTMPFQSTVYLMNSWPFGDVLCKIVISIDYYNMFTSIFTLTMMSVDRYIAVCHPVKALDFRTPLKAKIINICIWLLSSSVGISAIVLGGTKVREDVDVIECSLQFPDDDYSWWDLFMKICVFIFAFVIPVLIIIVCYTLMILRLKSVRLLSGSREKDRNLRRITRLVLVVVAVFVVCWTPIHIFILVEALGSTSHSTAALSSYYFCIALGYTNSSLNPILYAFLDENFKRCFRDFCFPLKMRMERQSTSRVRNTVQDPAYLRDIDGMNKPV
Mu-type opioid receptor (Rattus norvegicus, UniProt P33535), sequence (P33535 whole entry): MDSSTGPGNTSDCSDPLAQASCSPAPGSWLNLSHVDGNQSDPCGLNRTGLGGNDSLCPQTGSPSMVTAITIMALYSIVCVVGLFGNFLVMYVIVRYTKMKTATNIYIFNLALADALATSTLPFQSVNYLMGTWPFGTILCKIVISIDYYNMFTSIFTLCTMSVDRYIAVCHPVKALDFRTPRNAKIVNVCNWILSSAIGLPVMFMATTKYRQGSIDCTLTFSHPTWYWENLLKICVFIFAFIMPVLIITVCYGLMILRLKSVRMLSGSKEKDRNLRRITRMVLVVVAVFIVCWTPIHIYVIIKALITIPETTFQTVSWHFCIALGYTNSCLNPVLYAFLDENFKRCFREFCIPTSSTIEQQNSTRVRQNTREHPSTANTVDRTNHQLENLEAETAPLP
T1 sequence (P35372 whole entry): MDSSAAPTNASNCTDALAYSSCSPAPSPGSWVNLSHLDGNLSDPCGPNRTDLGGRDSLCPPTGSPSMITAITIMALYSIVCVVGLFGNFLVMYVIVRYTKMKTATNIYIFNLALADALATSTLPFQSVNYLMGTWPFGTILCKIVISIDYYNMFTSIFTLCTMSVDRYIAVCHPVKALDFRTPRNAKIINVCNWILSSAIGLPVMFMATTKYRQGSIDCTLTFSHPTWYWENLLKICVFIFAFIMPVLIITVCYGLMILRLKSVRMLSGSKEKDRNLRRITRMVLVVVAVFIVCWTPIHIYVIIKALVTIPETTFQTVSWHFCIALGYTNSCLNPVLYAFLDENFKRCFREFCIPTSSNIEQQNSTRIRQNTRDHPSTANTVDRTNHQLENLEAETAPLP

| SMILES | IC50 (Mu-type opioid receptor [1]) [nM] | IC50 [2] [nM] | IC50 [3] [nM] | remaining at 1.5 h, 500 µM [4] [%] | EC50 (Mu-type opioid receptor [5]) [nM] | Activity [6] | EC50 [7] [nM] | Ratio [8] | Activity (Mu-type opioid receptor [9]) | EC50 [10] [nM] | Ratio [11] | inhibition (Mus musculus [12]) | inhibition (Mus musculus [13]) | inhibition (Mus musculus [14]) | inhibition (Mus musculus [15]) | MPE (Mus musculus [16]) [%] |
| --- | --- | --- | --- | --- | --- | --- | --- | --- | --- | --- | --- | --- | --- | --- | --- | --- |
| Cc1cc(O)cc(C)c1C[C@H](N)C(=O)N[C@@H]1CCCCNC(=O)C[C@@H](C(N)=O)NC(=O)[C@H](Cc2ccccc2)NC(=O)[C@H](Cc2ccc(F)cc2)NC1=O | 0.55 | 280 | 2.4 | 96 | 2.51 | inactive | 4.79 | 0.79 |  |  |  |  |  |  |  |  |
| NC(=O)[C@@H]1CC(=O)NCCCC[C@@H](NC(=O)[C@@H](N)Cc2ccc(O)cc2)C(=O)N[C@@H](Cc2ccc(C(F)(F)F)cc2)C(=O)N[C@@H](Cc2ccccc2)C(=O)N1 | > 1000 | > 1000 | 24.5 | 97 |  | inactive | 72.4 | 0.7 | inactive |  |  |  |  |  |  |  |
| NC(=O)[C@@H]1CC(=O)NCCCC[C@@H](NC(=O)[C@@H](N)Cc2ccc(O)cc2)C(=O)N[C@@H](Cc2ccccc2)C(=O)N[C@@H](Cc2ccc(F)cc2)C(=O)N1 | 0.98 | 286 | 0.6 | 93 | 3.24 |  | 1.05 | 0.88 |  | 51.3 | 0.2 |  |  |  |  |  |
| NC(=O)[C@@H]1CC(=O)NCCCC[C@@H](NC(=O)[C@@H](N)Cc2ccc(O)cc2)C(=O)N[C@@H](Cc2ccccc2)C(=O)N[C@@H](Cc2ccc(C(F)(F)F)cc2)C(=O)N1 | 1.6 | 429 | 1.5 | 97 | 5.25 |  | 11.7 | 0.78 |  | 162 | 0.27 |  |  |  |  |  |
| Cc1cc(O)cc(C)c1C[C@H](N)C(=O)N[C@@H]1CCCCNC(=O)C[C@@H](C(N)=O)NC(=O)[C@H](Cc2ccc(F)cc2)NC(=O)[C@H](Cc2ccccc2)NC1=O | 0.61 | 168 | 0.55 | 93 | 2.75 |  | 2.24 | 0.71 |  | 33.9 | 0.21 | Dose-dependent effect | Active | inactive | Active |  |
| Cc1cc(O)cc(C)c1C[C@H](N)C(=O)N[C@@H]1CCCCNC(=O)C[C@@H](C(N)=O)NC(=O)[C@H](Cc2ccccc2)NC(=O)[C@H](Cc2ccc(F)cc2F)NC1=O | 0.54 | 342 | 0.6 | 94 | 5.13 |  | 2.82 | 0.65 |  |  |  |  |  |  |  |  |
| NC(=O)[C@@H]1CC(=O)NCCCC[C@@H](NC(=O)[C@@H](N)Cc2ccc(O)cc2)C(=O)N[C@@H](Cc2ccc(F)cc2)C(=O)N[C@@H](Cc2ccccc2)C(=O)N1 | 0.72 | 348 | 2.43 | 96 | 2.57 |  | 10 | 0.89 |  | 457 | 0.14 |  |  |  |  |  |
| Cc1cc(O)cc(C)c1C[C@H](N)C(=O)N[C@@H]1CCCCNC(=O)C[C@@H](C(N)=O)NC(=O)[C@H](Cc2ccc(C(F)(F)F)cc2)NC(=O)[C@H](Cc2ccccc2)NC1=O (H-[Dmt][dK]F[Phe(4-CF3)]D-NH2; lactam 2-5) | 0.92 | > 1000 | 1.15 | 93 | 6.76 | inactive | 3.63 | 0.6 |  |  |  |  |  |  |  |  |
| Cc1cc(O)cc(C)c1C[C@H](N)C(=O)N[C@@H]1CCCCNC(=O)C[C@@H](C(N)=O)NC(=O)[C@H](Cc2ccccc2)NC(=O)[C@H](Cc2ccc(C(F)(F)F)cc2)NC1=O | > 1000 | > 1000 | 6.4 | 96 |  |  |  |  | inactive | 9.33 | 0.28 |  |  |  |  |  |
| NC(=O)[C@@H]1CC(=O)NCCCC[C@@H](NC(=O)[C@@H](N)Cc2ccc(O)cc2)C(=O)N[C@@H](Cc2ccc(F)cc2F)C(=O)N[C@@H](Cc2ccccc2)C(=O)N1 | 0.69 | > 1000 | 3.26 | 93 | 4.07 | inactive | 7.59 | 0.78 |  |  |  |  |  |  |  |  |
| Cc1cc(O)cc(C)c1C[C@H](N)C(=O)N[C@@H]1CCCCNC(=O)C[C@@H](C(N)=O)NC(=O)[C@H](Cc2ccc(F)cc2F)NC(=O)[C@H](Cc2ccccc2)NC1=O | 0.49 | 11.2 | 0.3 | 97 | 1.66 |  | 1.35 | 0.82 |  | 8.71 | 0.37 | Dose-dependent effect |  | inactive | Active | 84 |
| NC(=O)[C@H](Cc1ccccc1)NC(=O)[C@H](Cc1ccccc1)NC(=O)[C@@H]1CCCN1C(=O)[C@@H](N)Cc1ccc(O)cc1 [ENDOMORPHIN 2] |  |  |  | 0.61 |  |  |  |  |  |  |  |  |  |  |  |  |
| NC(=O)[C@@H]1CC(=O)NCCCC[C@@H](NC(=O)[C@@H](N)Cc2ccc(O)cc2)C(=O)N[C@@H](Cc2ccccc2)C(=O)N[C@@H](Cc2ccc(F)cc2F)C(=O)N1 | 0.42 | 110 | 0.9 | 94 | 6.31 |  | 4.9 | 0.78 |  | 126 | 0.5 |  |  |  |  |  |
